Test results taken from the supplement of paper PMC11368000.

Key:
Details in all cases: exposure time: 90 min
1518 [1] = donor line of iPSC-derived cardiomyocytes; assay: POD (EC05) for increase in Ca2+ transient decay-to-rise ratio (QT prolongation) vs vehicle; higher = less potent (higher point of departure)
How it was run: (§1)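 Cardiomyocytes derived from human iPSCs of 16 donors were grown 14 days in gelatin-coated 384-well plates, loaded 2 h with a fluorescent Ca2+ dye, then exposed for 90 min at 37 °C to final concentrations of 0.1, 1, 10 and 100 µM in 0.5% DMSO. A FLIPR Tetra recorded Ca2+ flux at 8 frames/s for 100 s before and after exposure. Points of departure for each donor were derived by hierarchical Bayesian Hill fitting of vehicle-normalised beat frequency, decay-to-rise ratio or peak frequency. The thresholds applied were a 5% change, or a 95% loss for peak frequency.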

1309 [2] = donor line of iPSC-derived cardiomyocytes; assay: as above
How it was run: as §1

1531 [3] = donor line of iPSC-derived cardiomyocytes; assay: as above
How it was run: as §1

1516 [4] = donor line of iPSC-derived cardiomyocytes; assay: as above
How it was run: as §1

20084 = donor line of iPSC-derived cardiomyocytes; assay: POD (EC05) for increase in beat frequency (positive chronotrope) vs vehicle; higher = less potent (higher point of departure)
How it was run: as §1

30145 = donor line of iPSC-derived cardiomyocytes; assay: as above
How it was run: as §1

30171 = donor line of iPSC-derived cardiomyocytes; assay: as above
How it was run: as §1

1535 = donor line of iPSC-derived cardiomyocytes; assay: as above
How it was run: as §1

1565 = donor line of iPSC-derived cardiomyocytes; assay: as above
How it was run: as §1

1518 [5] = assay: as above
How it was run: as §1

1309 [6] = assay: as above
How it was run: as §1

1531 [7] = assay: as above
How it was run: as §1

1392 = donor line of iPSC-derived cardiomyocytes; assay: as above
How it was run: as §1

1516 [8] = assay: as above
How it was run: as §1

1368 = donor line of iPSC-derived cardiomyocytes; assay: as above
How it was run: as §1

1118 = donor line of iPSC-derived cardiomyocytes; assay: as above
How it was run: as §1

1434 = donor line of iPSC-derived cardiomyocytes; assay: as above
How it was run: as §1

20032 = donor line of iPSC-derived cardiomyocytes; assay: as above
How it was run: as §1

1083 = donor line of iPSC-derived cardiomyocytes; assay: as above
How it was run: as §1

11235 = donor line of iPSC-derived cardiomyocytes; assay: as above
How it was run: as §1

Row | Structure (SMILES) | POD vs vehicle 1518 [1] [µM] | POD vs vehicle 1309 [2] [µM] | POD vs vehicle 1531 [3] [µM] | POD vs vehicle 1516 [4] [µM] | POD vs vehicle 20084 [µM] | POD vs vehicle 30145 [µM] | POD vs vehicle 30171 [µM] | POD vs vehicle 1535 [µM] | POD vs vehicle 1565 [µM] | POD vs vehicle 1518 [5] [µM] | POD vs vehicle 1309 [6] [µM] | POD vs vehicle 1531 [7] [µM] | POD vs vehicle 1392 [µM] | POD vs vehicle 1516 [8] [µM] | POD vs vehicle 1368 [µM] | POD vs vehicle 1118 [µM] | POD vs vehicle 1434 [µM] | POD vs vehicle 20032 [µM] | POD vs vehicle 1083 [µM] | POD vs vehicle 11235 [µM]
1 | O=S(=O)(O)C(F)(F)C(F)(F)C(F)(F)C(F)(F)C(F)(F)C(F)(F)F [Perfluorohexanesulfonic_acid] | > 100 | > 100 | > 100 | > 100 | > 100 | > 100 | > 100 | > 100 | > 100 | > 100 | > 100 | > 100 | > 100 | > 100 | > 100 | > 100 | > 100 | > 100 | > 100 | > 100
2 | O=C(O)C(F)(F)C(F)(F)C(F)(F)C(F)(F)C(F)(F)C(F)(F)C(F)(F)C(F)(F)Cl [9-Chloro-perfluorononanoic_acid] | > 100 | > 100 | > 100 | > 100 | > 100 | > 100 | > 100 | > 100 | > 100 | > 100 | > 100 | > 100 | > 100 | > 100 | > 100 | > 100 | > 100 | > 100 | > 100 | > 100
3 | O=C(O)C(F)(F)C(F)(F)C(F)(F)C(F)(F)C(F)(F)C(F)(F)C(F)(F)C(F)(F)C(F)(F)C(F)(F)F [Perfluoroundecanoic_acid] | 17.4 | > 100 | > 100 | > 100 | > 100 | > 100 | > 100 | > 100 | > 100 | > 100 | > 100 | > 100 | > 100 | > 100 | > 100 | > 100 | > 100 | > 100 | > 100 | > 100
